Experimental findings from ChEMBL document CHEMBL1154439, “Activity of a hydroxybibenzyl bryophyte constituent against Leishmania spp. and Trypanosoma cruzi: in silico, in vitro and in vivo activity studies” (Eur J Med Chem, 2008) are described below.

The subject of series [1] is Leishmania braziliensis. The series is described as follows: Antileishmanial activity against Leishmania braziliensis MHOM/BR/75/M2903 promastigotes assessed as lysis of promastigotes at 100 ug/ml after 72 hrs. The format is functional.
Series [2] concerns Leishmania amazonensis. Briefly: Antileishmanial activity against Leishmania amazonensis IFLA/BR/67/PH8 promastigotes assessed as lysis of promastigotes at 100 ug/ml after 72 hrs. The series is classed as functional.
Series [3] relates to Trypanosoma cruzi. The series is described as follows: Antitrypanosomal activity against Trypanosoma cruzi CL-B5 amastigotes infected in mouse NCTC-929 fibroblast after 7 days by colorimetric method. The format is functional, organism-based. As to conditions: NCTC-929, 168 h.
In series [4] the test system is Trypanosoma cruzi. The series is described as follows: Trypanocidal activity against Trypanosoma cruzi CL-B5 clone epimastigotes expressing lacZ gene after 72 hrs at 28 degC. The series is classed as functional, organism-based.
The test system of series [5] is Leishmania braziliensis. Briefly: Leishmanicidal activity against Leishmania braziliensis MHOM/BR/75/M2903 promastigotes after 72 hrs. The series is classed as functional, organism-based. As to conditions: MHOM/BR/75/M2903, 72 h.
Series [6] relates to Leishmania amazonensis. Briefly: Antileishmanial activity against Leishmania amazonensis PH8 amastigotes infected in mouse peritoneal macrophages after 48 hrs. The series is classed as functional, organism-based. As to conditions: PH8, 48 h.
Series [7] relates to Leishmania amazonensis. Briefly: Leishmanicidal activity against Leishmania amazonensis IFLA/BR/67/PH8 promastigotes after 72 hrs. The series is classed as functional, organism-based. Particulars: IFLA/BR/67/PH8, 72 h.
Series [8] concerns Leishmania donovani. The series is described as follows: Leishmanicidal activity against Leishmania donovani MHOM/BR/74/PP75 promastigotes after 72 hrs. The format is functional, organism-based.
The test system of series [9] is Leishmania amazonensis. The series is described as follows: Leishmanicidal activity against Leishmania amazonensis IFLA/BR/67/PH8 promastigotes at >13.03 uM after 72 hrs. The format is functional, organism-based.
The test system of series [10] is Leishmania amazonensis. Briefly: Leishmanicidal activity against Leishmania amazonensis amastigotes infected in BALB/c mouse assessed as suppression of parasite load in lesions at 10 mg/kg/day, sc administered 4 weeks after infection for 15 days measured after 1 week relative to control. The series is classed as functional. Particulars: route subcutaneous.
For series [11], the system named is J774. Briefly: Cytotoxicity against mouse J774 macrophages at 2.1 uM after 24 hrs by resazurin test. The format is cell-based. As to conditions: j774, 24 h. In general terms: Alamar Blue is a resazurin reagent that responds to reducing activity.
A short description of series [12]: Cytotoxicity against mouse NCTC-929 fibroblast at 21.7 uM after 24 hrs by resazurin test. The format is cell-based. As to conditions: nctc-929, 24 h.
A short description of series [13]: Cytotoxicity against BALB/c mouse peritoneal macrophages at 4.3 uM after 48 hrs by trypan blue exclusion method. The series is classed as cell-based. Particulars: macrophage.
The test system of series [14] is Leishmania braziliensis. The series is described as follows: Leishmanicidal activity against Leishmania braziliensis MHOM/BR/75/M2903 promastigotes at >13.03 uM after 72 hrs. The series is classed as functional, organism-based.
In series [15] the test system is Leishmania amazonensis. The series is described as follows: Leishmanicidal activity against Leishmania amazonensis amastigotes infected in BALB/c mouse assessed as suppression of lesion weight at 10 mg/kg/day, po administered 4 weeks after infection for 15 days measured after 1 week relative to control. The format is functional.
Series [16] concerns Leishmania donovani. Briefly: Antileishmanial activity against Leishmania donovani MHOM/BR/74/PP75 promastigotes assessed as lysis of promastigotes at 100 ug/ml after 72 hrs. The format is functional.
The test system of series [17] is Leishmania amazonensis. Briefly: Leishmanicidal activity against Leishmania amazonensis amastigotes infected in BALB/c mouse assessed as suppression of parasite load in lesions at 25 mg/kg/day, sc administered 4 weeks after infection for 15 days measured after 1 week relative to control. The series is classed as functional. As to conditions: route subcutaneous.

In series [18] the test system is Leishmania donovani. The series is described as follows: Leishmanicidal activity against Leishmania donovani MHOM/BR/74/PP75 promastigotes at >13.03 uM after 72 hrs. The format is functional, organism-based.
For series [19], the system named is J774. Briefly: Cytotoxicity against mouse J774 macrophages at 4.3 uM after 24 hrs by resazurin test. As to conditions: j774, 24 h. The format is cell-based.
Series [20] in a line: Cytotoxicity against BALB/c mouse peritoneal macrophages at 8.6 uM after 48 hrs by trypan blue exclusion method. The format is cell-based. Particulars: macrophage.
For series [21], the system named is J774. The series is described as follows: Cytotoxicity against mouse J774 macrophages at 21.7 uM after 24 hrs by resazurin test. As to conditions: j774, 24 h. The series is classed as cell-based.
Series [22] in a line: Cytotoxicity against mouse NCTC-929 fibroblast at 2.1 uM after 24 hrs by resazurin test. Particulars: nctc-929, 24 h.
The subject of series [23] is Leishmania amazonensis. The series is described as follows: Leishmanicidal activity against Leishmania amazonensis amastigotes infected in BALB/c mouse assessed as suppression of lesion weight at 25 mg/kg/day, po administered 4 weeks after infection for 15 days measured after 1 week relative to control. The format is functional.
Series [24] relates to Leishmania amazonensis. Briefly: Leishmanicidal activity against Leishmania amazonensis amastigotes infected in BALB/c mouse assessed as suppression of lesion weight at 25 mg/kg/day, sc administered 4 weeks after infection for 15 days measured after 1 week relative to control. The series is classed as functional. As to conditions: route subcutaneous.
Series [25] has as its system Leishmania amazonensis. The series is described as follows: Antileishmanial activity against Leishmania amazonensis PH8 amastigotes infected in mouse peritoneal macrophages at >4.34 uM. The format is functional, organism-based.
Series [26] deals with Leishmania amazonensis. The series is described as follows: Leishmanicidal activity against Leishmania amazonensis amastigotes infected in BALB/c mouse assessed as suppression of parasite load in lesions at 25 mg/kg/day, po administered 4 weeks after infection for 15 days measured after 1 week relative to control. The format is functional.
For series [27], the system named is Leishmania amazonensis. The series is described as follows: Leishmanicidal activity against Leishmania amazonensis amastigotes infected in BALB/c mouse assessed as suppression of lesion weight at 10 mg/kg/day, sc administered 4 weeks after infection for 15 days measured after 1 week relative to control. The series is classed as functional. Particulars: route subcutaneous.

Series [28] can be described thus: Cytotoxicity against BALB/c mouse peritoneal macrophages at 2.1 uM after 48 hrs by trypan blue exclusion method. The series is classed as cell-based. As to conditions: macrophage.
Series [29] can be described thus: Cytotoxicity against mouse NCTC-929 fibroblast at 4.3 uM after 24 hrs by resazurin test. The format is cell-based. As to conditions: nctc-929, 24 h.
Series [30] in a line: Cytotoxicity against BALB/c mouse peritoneal macrophages at 21.7 uM after 48 hrs by trypan blue exclusion method. The series is classed as cell-based. Particulars: macrophage.
The subject of series [31] is Leishmania amazonensis. Briefly: Leishmanicidal activity against Leishmania amazonensis amastigotes infected in BALB/c mouse assessed as suppression of parasite load in lesions at 10 mg/kg/day, po administered 4 weeks after infection for 15 days measured after 1 week relative to control. The format is functional.
In series [32] the test system is J774. Briefly: Cytotoxicity against mouse J774 macrophages at 8.6 uM after 24 hrs by resazurin test. The format is cell-based. Particulars: j774, 24 h.
Series [33] can be described thus: Cytotoxicity against mouse NCTC-929 fibroblast at 8.6 uM after 24 hrs by resazurin test. Particulars: nctc-929, 24 h. The format is cell-based.
The test system of series [34] is Leishmania amazonensis. Briefly: Leishmanicidal activity against Leishmania amazonensis amastigotes infected in BALB/c mouse assessed as suppression of lesion weight at 100 mg/kg/day, sc administered 4 weeks after infection for 15 days measured after 1 week relative to control. The format is functional, organism-based.
In series [35] the test system is Leishmania amazonensis. Briefly: Leishmanicidal activity against Leishmania amazonensis amastigotes infected in BALB/c mouse assessed as suppression of parasite load in lesions at 100 mg/kg/day, sc administered 4 weeks after infection for 15 days measured after 1 week relative to control. The format is functional, organism-based.

The term IC50 denotes the concentration at which inhibition is half-maximal. A lower IC50 goes with higher potency.

Activity calls are given as the source filed them. The calls are words filed in the database; no cut-off is given here. Where only a bound is given, the exact number is not on record here.

In the case of `COc1ccc(CCc2cc(OC)ccc2OC)cc1`, the Activity in [1] and in series [2] was under 70% each time.
Consider `O=C(Cn1ccnc1[N+](=O)[O-])NCc1ccccc1` [BENZNIDAZOLE], for which the IC50 in series [3] came out at 192 µM; in series [4], 54.7 µM.
For `N=C(N)c1ccc(OCCCCCOc2ccc(C(=N)N)cc2)cc1` [PENTAMIDINE], the IC50 in [5] was 9.8 µM; in series [6], 0.9 µM; in [7], 9.8 µM; in [8], 9.8 µM.
Turning to `Oc1ccc(CCc2cccc(O)c2)cc1` [LUNULARIN], the Activity in [1] and in [2] was under 70% each time.
For `Oc1ccc(CCc2cc(O)ccc2O)cc1`, the outcome in [9], in series [14], in series [18] and in series [25] was Active. In addition, the Activity in [10] was 93%; in series [11] it was 0.76%; in series [12] it was 7.91%; in [13] it was 0%; in series [15] it was 90%; in series [16], 100%. The Activity in series [17] worked out at 97%; in series [19] it was 2.11%; in [20], 0%; in series [1] it was 100%; in [21], 18.88%; in [22], 0%. Further, the Activity in [23] is recorded as 80.9%; in [24], 98.3%; in [26], 93.1%; in series [27], 95.9%; in series [28], 0%; in series [29], 0.66%. For the same compound, the Activity in [30] is recorded as 1.4%; in series [31] it was 68.6%; in series [32], 4.89%; in series [2] it was 100%; in series [33], 2.93%. The IC50 in series [3] stood at 17.3 µM; in series [5] it was 1.1 µM; in series [6], 1.5 µM; in series [7] it was 1.1 µM; in [4], 5.8 µM; in [8] it was 0.5 µM.
For `Oc1ccc(/C=C/c2cc(O)cc(O)c2)cc1` [RESVERATROL], the results for the Activity in series [16], in series [1] and in series [2] were under 70%, 80% and under 70%, respectively.
MEGLUMINE ANTIMONATE: the Activity was found to be 72.1% in [34] and 98.2% in [35].
